# Results published in PMC7155171, “Probing the Open Global Health Chemical Diversity Library for Multistage-Active Starting Points for Next-Generation Antimalarials” (ACS Infectious Diseases, 2020).
# Like-named read-outs stand apart in the source and are kept apart here.
# How the values were obtained:
# [1] = system: HepG2-A16-CD81 hepatocytes; assay: cells; design: Uninfected hepatocyte viability, CellTiter-Glo luminescence; settings: sheet CDD Export 1;, cytotoxicity primary screen, read-out: Table S5. Liver stage reconfirmation data / HepG2 Cytotoxicity primary screen (2uM): % Inhibition
# Method: For the screen, 5 μL of HepG2-A16-CD81 hepatocytes containing 3 × 10^3 cells was seeded into 1536-well plates, which had been prespotted with 10 nL of library compound (2 μM final assay concentration (Figure 1)) and incubated overnight. For PbLuc infected plates, approximately 750 purified sporozoites in 5 μL of screening media were added to each well and incubated for 48 h before measuring luciferase activity. Compounds were tested for toxicity in parallel (see Methods) by measuring uninfected hepatocyte viability using CellTiter-Glo. […] This hit rate was slightly lower than expected for an agnostic library, which prompted us to rescreen the entire library at 10 μM. The PbLuc and cytotoxicity assay plates for this second replicate would be stamped in-house with 50 nL of library compound per well, using the same compound plates as the sexual stage screen described below. All the assay parameters were kept similar, except the change in concentration and shortening the time the compounds spent in each well prior to infection. […] All potential false positive effectors from the CellTiter-Glo assay were filtered from subsequent studies (Table S1). Naturally, there were more primary hits from the 10 μM than the 2 μM screen due to the higher testing concentration. For reconfirmation, we sourced all the hits that inhibited PbLuc at >70% and mean HepG2 at <50% in the 2 μM screen or PbLuc at >60% in both 2 and 10 μM screens and mean HepG2 at <50%. The resulting compounds were acquired as DMSO stocks and retested in the dose response (50–2.82 × 10^–4 μM or 25–141.13 × 10^–6 μM) against PbLuc and uninfected hepatocytes (Table S5). […] The majority of these compounds were weak inhibitors, although 18 submicromolar hits were found (Table S5).
# [2] = system: P. falciparum (NF54) stage V gametocytes; assay: Stage V gametocyte viability assay (MitoTracker Red CMXRos high content imaging); type: cell-based, Plasmodium falciparum; settings: Plasmodium falciparum; for inhibition at 2 µM: read-out: Stg V Gam primary screen: Inhibition % (2uM) (n=2)
# [3] = system: P. falciparum Dd2 (PfLuc) line expressing firefly luciferase, asexual blood stage; assay: microbe, parasite or virus in culture; type: cell-based, Plasmodium falciparum; settings: Plasmodium falciparum
# P. falciparum Dd2 = assay: SYBR green I asexual blood stage proliferation assay (96 h); type: cell-based, Plasmodium falciparum; settings: Plasmodium falciparum, DD2, 11-pt dose response, 96hr
# [4] = NF54, 72 h, read-out: GAM V IC50, stage V gametocytes, 72 h
# [5] = NF54, 72 h, read-out: Stg V Gam dose response IC50 (µM) (n=3), 10-point dose response, n=3, 72 h
# [6] = DD2, read-out: CDD P. falciparum Luciferase ABS 11-pt Reconfirmation Dose Response (48hr): IC50 (μM), 11-pt dose response, 48hr
# [7] = DD2, 8-pt dose response, 96hr, read-out: CDD P. falciparum Luciferase ABS 8-pt Reconfirmation Dose Response (96hr): IC50
# [8] = DD2, 11-pt dose response, 48hr, read-out: CDD P. falciparum Luciferase ABS 11-pt Reconfirmation Dose Response (48hr): Maximum inhibition (%)
# [9] = DD2, 11-pt dose response, 96hr, read-out: CDD P. falciparum Luciferase ABS 11-pt Reconfirmation Dose Response (96hr): IC50
# [10] = DD2, 11-pt dose response, 96hr, read-out: CDD P. falciparum Luciferase ABS 11-pt Reconfirmation Dose Response (96hr): Maximum inhibition (%)
# [11] = Sybr Green I, read-out: CDD P. falciparum Sybr Green I ABS 11-pt Reconfirmation Dose Response (96hr): IC50
# [12] = DD2, 8-pt dose response, 96hr, read-out: CDD P. falciparum Luciferase ABS 8-pt Reconfirmation Dose Response (96hr): Maximum inhibition (%)
# [13] = Sybr Green I, read-out: CDD P. falciparum Sybr Green I ABS 11-pt Reconfirmation Dose Response (96hr): Maximum inhibition (%)
# [14] = DD2, 8-pt dose response, 96hr, read-out: P. falciparum Luciferase ABS 8-pt Reconfirmation Dose Response (96hr): IC50
# [15] = DD2, 8-pt dose response, 96hr, read-out: P. falciparum Luciferase ABS 8-pt Reconfirmation Dose Response (96hr): Maximum inhibition (%)
structure (smiles),measurement,setting,value
O=S(=O)(c1ccc(Cl)s1)N1CCN(Cc2nc(-c3ccco3)cs2)CC1 [DDD01027755],inhibition at 2 µM,[1],12.1%
CC(C)(C)NC(=O)N1CCC(Oc2ccc(C(F)(F)F)cn2)CC1 [DDD01028321],inhibition at 2 µM,[1],-4.73%
COc1cccc(CN2CCc3nc(C(=O)NCC(C)C)sc3CC2)c1 [DDD01030710],inhibition at 2 µM,[1],-10.2%
"COCCCNC1N=C(n2nc(C)cc2C)Nc2sc3c(c21)CCCC3 (centres unmarked) [DDD01037467, COCCCNC1N=C(NC2=C1C1=C(CCCC1)S2)N1N=C(C)C=C1C]",IC50,[2]; [4],0.34 µM
same,IC50,[2]; [5],0.344 µM
same,inhibition at 2 µM,[1],2.66%
CC(=O)Nc1ncc(S(=O)(=O)Nc2ccc3c(c2)OCCO3)s1 [DDD01037671],inhibition at 2 µM,[1],-2.36%
Cn1cncc1CN1CCCC1c1cncc(Oc2ccc(Cl)cc2)n1 (centres unmarked) [DDD01059295],inhibition at 2 µM,[1],0.825%
Cc1ncc(CN2CCOC(c3ccc(-c4ccccc4F)cn3)C2)s1 (centres unmarked) [DDD01059493],inhibition at 2 µM,[1],-6.23%
Cc1cc(-c2cnc(NCc3cccnc3)nc2C(C)(C)C)on1 [DDD01061148],inhibition at 2 µM,[1],-8.43%
COC1CCN(c2ccc(NC(=O)C3CC3)cc2C(F)(F)F)CC1 [DDD01061774],inhibition at 2 µM,[1],12.4%
N#Cc1c(Cl)nsc1NCc1cccnc1OCC(F)(F)F [DDD01067853],inhibition at 2 µM,[1],4.29%
CCNc1ccnc(CN2CCCC2C(=O)Nc2nccs2)c1 (centres unmarked) [DDD01068941],IC50,[3]; [6],0.73 µM
same,IC50,[3]; [7],0.48 µM
same,Emax,[3]; [8],92.3%
same,IC50,[3]; [9],0.407 µM
same,Emax,[3]; [10],99.6%
same,IC50,P. falciparum Dd2; [11],1650 nM
same,inhibition at 2 µM,[1],1.3%
COc1cccc(CNc2cc(C)nc(-c3ccncc3)n2)c1OC [DDD01073393],IC50,[3]; [6],4.09 µM
same,IC50,[3]; [7],0.56 µM
same,Emax,[3]; [12],94.5%
same,Emax,[3]; [8],80%
same,IC50,[3]; [9],0.0383 µM
same,Emax,[3]; [10],98.2%
same,IC50,P. falciparum Dd2; [11],589 nM
same,Emax,P. falciparum Dd2; [13],75.8%
same,inhibition at 2 µM,[1],-4.44%
COC(=O)c1sc(NCc2ccc(N3CCC(O)CC3)c(F)c2)nc1Cl [DDD01073922],inhibition at 2 µM,[1],5.85%
Cc1nc(C(=O)NC2CCN(CCOc3ccc(Br)cc3)CC2)cs1 [DDD01079205],inhibition at 2 µM,[1],17.6%
N#Cc1c(Cl)nsc1NCC1(c2ccccc2)CCC1 [DDD01079347],inhibition at 2 µM,[1],12%
O=C(CN1CCCC(c2ccn[nH]2)C1)Nc1nc2c(s1)CCCC2 (centres unmarked) [DDD01079490],IC50,[3]; [6],0.452 µM
same,IC50,[3]; [7],0.28 µM
same,Emax,[3]; [12],89.3%
same,Emax,[3]; [8],82.4%
same,IC50,[3]; [9],0.266 µM
same,Emax,[3]; [10],97%
same,IC50,P. falciparum Dd2; [11],810 nM
same,Emax,P. falciparum Dd2; [13],69.6%
same,inhibition at 2 µM,[1],7.13%
CCc1ccc(-c2ncc3c(n2)N(C)CCN(CCN(C)C)C3=O)cc1 [DDD01235938],inhibition at 2 µM,[1],4.38%
Cc1ccc(Sc2ccc(CN3CCC4(CCCNC4=O)C3)o2)cc1 (centres unmarked) [DDD01244322],inhibition at 2 µM,[1],-4.2%
"CC1(c2ccccc2)CCCN(Cc2cncn2C2CCCC2)C1 (centres unmarked) [DDD01246491, CC1(CCCN(CC2=CN=CN2C2CCCC2)C1)C1=CC=CC=C1]",IC50,[2]; [5],2.65 µM
same,inhibition at 2 µM,"[2]; NF54, 72 h",55.4%
same,inhibition at 2 µM,[1],-6.73%
Clc1ccccc1-c1cc(CNc2ncnc3c2CCNCC3)no1 [DDD01247009],inhibition at 2 µM,[1],-1.07%
Fc1ccc(N2CCCN(c3ccc(Cn4ccnc4)cn3)CC2)cc1 [DDD01247581],inhibition at 2 µM,[1],3.83%
"CCc1[nH]c2c(CNc3nc(C)cc(NC)n3)cc(C)cc2c1C [DDD01251782, CCC1=C(C)C2=CC(C)=CC(CNC3=NC(C)=CC(NC)=N3)=C2N1]",IC50,[3]; [6],0.765 µM
same,IC50,[3]; [7],0.63 µM
same,Emax,[3]; [12],95.7%
same,IC50,[3]; [9],0.158 µM
same,Emax,[3]; [10],98.4%
same,IC50,P. falciparum Dd2; [11],696 nM
same,Emax,P. falciparum Dd2; [13],98%
same,IC50,"[2]; NF54, read-out: Stg V Gam dose response IC50 (µM) (n=3), 10-point dose response, n=3, 72 h",3.76 µM
same,inhibition at 2 µM,"[2]; NF54, Table S6, 2uM, n=2, 72 h",53.8%
same,IC50,"[2]; NF54, stage V gametocytes, 72 h, read-out: GAM V IC50",3.76 µM
COc1ccc(-c2cc(CNc3ncnc4c3CCNCC4)no2)cc1 [DDD01252258],inhibition at 2 µM,[1],4.02%
"NCC1CCN(C2CCN(c3ccc(-c4ccco4)cc3)CC2)C1 (centres unmarked) [DDD01252361, NCC1CCN(C1)C1CCN(CC1)C1=CC=C(C=C1)C1=CC=CO1]",IC50,[3]; [6],3 µM
same,IC50,[3]; [7],0.4 µM
same,Emax,[3]; [12],95.9%
same,Emax,[3]; [8],98.8%
same,IC50,[3]; [9],1.8 µM
same,Emax,[3]; [10],100%
same,IC50,P. falciparum Dd2; [11],605 nM
same,Emax,P. falciparum Dd2; [13],95.1%
same,IC50,[2]; [5],1.9 µM
same,inhibition at 2 µM,"[2]; NF54, 72 h",80.5%
CC(Nc1ncnc2c1CCNC2)c1ccc2c(c1)CCCC2 (centres unmarked) [DDD01252547],inhibition at 2 µM,[1],0.573%
"CCc1ccc(C2c3nc[nH]c3CCN2Cc2nccn2CC)nc1 (centres unmarked) [DDD01254473, CCN1C=CN=C1CN1CCC2=C(NC=N2)C1C1=CC=C(CC)C=N1]",IC50,"[3]; DD2, read-out: P. falciparum Luciferase ABS 11-pt Reconfirmation Dose Response (48hr): IC50, 11-pt dose response, 48hr",1.54 µM
same,IC50,[3]; [14],1.2 µM
same,Emax,[3]; [15],91.2%
same,IC50,"[3]; DD2, 11-pt dose response, 96hr, read-out: P. falciparum Luciferase ABS 11-pt Reconfirmation Dose Response (96hr): IC50",0.448 µM
same,Emax,"[3]; DD2, 11-pt dose response, 96hr, read-out: P. falciparum Luciferase ABS 11-pt Reconfirmation Dose Response (96hr): Maximum inhibition (%)",98.8%
same,IC50,P. falciparum Dd2; read-out: P. falciparum Sybr Green I ABS 11-pt Reconfirmation Dose Response (96hr): IC50,2640 nM
same,Emax,P. falciparum Dd2; read-out: P. falciparum Sybr Green I ABS 11-pt Reconfirmation Dose Response (96hr): Maximum inhibition (%),78.6%
same,IC50,[2]; [5],0.056 µM
same,inhibition at 2 µM,"[2]; NF54, 72 h",80.6%
Cc1csc2ncnc(N3CCC(Cn4cc(C(C)(C)N)nn4)CC3)c12 [DDD01257281],inhibition at 2 µM,[1],4.6%
"CN(Cc1nccs1)c1nc(-c2ccccn2)nc2c1CCNCC2 [DDD01258014, CN(CC1=NC=CS1)C1=NC(=NC2=C1CCNCC2)C1=CC=CC=N1]",IC50,[3]; [6],2.11 µM
same,IC50,[3]; [7],1.09 µM
same,Emax,[3]; [12],89.8%
same,Emax,[3]; [8],76.9%
same,IC50,[3]; [9],0.455 µM
same,Emax,[3]; [10],98%
same,IC50,"[3]; 96 h incubation, Dd2 luciferase, read-out: 96 hour Pfluc IC50",0.46 µM
same,IC50,P. falciparum Dd2; [11],8500 nM
same,Emax,P. falciparum Dd2; [13],68.8%
same,IC50,[2]; [4],1.18 µM
same,IC50,[2]; [5],1.18 µM
same,inhibition at 2 µM,"[2]; NF54, 72 h",75.5%
Nc1nc(CCC(=O)N2CCOC(CC3CCCCC3)C2)cs1 (centres unmarked) [DDD01258215],inhibition at 2 µM,[1],-10.6%
CC(=O)c1ccc(N2CCC(CO)(CCOc3ccccc3)CC2)nc1 [DDD01258288],inhibition at 2 µM,[1],17.5%
Cc1nc(N2CC[C@@H](NC(=O)c3cnccn3)[C@H](O)C2)c2ccsc2n1 [DDD01258299],inhibition at 2 µM,[1],-14.6%
COc1cc(CNCc2ccnc(N3CCCCC3)c2)cc(OC)c1 [DDD01297270],inhibition at 2 µM,[1],-2.79%
CCc1cccc(N2CCC(NC(=O)c3ccco3)CC2)c1 [DDD01299802],inhibition at 2 µM,[1],4.14%
COc1cccc(CN2CCN(c3ccc4nncn4n3)C(C)C2)c1 (centres unmarked) [DDD01301691],inhibition at 2 µM,[1],-7.2%
COc1c(C)cnc(CN2CCC(N(C)C(C)C(N)=O)CC2)c1C (centres unmarked) [DDD01301801],IC50,[3]; [14],1.63 µM
same,Emax,[3]; [15],76.5%
same,inhibition at 2 µM,[1],1.63%
Cc1noc(NC(=O)c2ccc(Br)s2)n1 [DDD01302055],inhibition at 2 µM,[1],5.11%
Cn1cc(NS(=O)(=O)c2ccc(OC(F)(F)F)cc2)ccc1=O [DDD01303273],inhibition at 2 µM,[1],-4.65%
CC(C)N(CC(N)=O)Cc1csc(COc2ccc(F)cc2)n1 [DDD01303358],inhibition at 2 µM,[1],6.02%
Cc1ccoc1C(=O)NC1CCN(Cc2csc3c(F)cccc23)CC1 [DDD01304087],inhibition at 2 µM,[1],-2.96%
